The values that follow come from ChEMBL document CHEMBL1201862, “PubChem BioAssay data set” (2004).

Type in all cases: functional
Assay [1] concerns the target T1, Replicative DNA helicase DnaB (Mycobacterium tuberculosis, UniProt P9WMR3).
T1 sequence (P9WMR3 whole entry): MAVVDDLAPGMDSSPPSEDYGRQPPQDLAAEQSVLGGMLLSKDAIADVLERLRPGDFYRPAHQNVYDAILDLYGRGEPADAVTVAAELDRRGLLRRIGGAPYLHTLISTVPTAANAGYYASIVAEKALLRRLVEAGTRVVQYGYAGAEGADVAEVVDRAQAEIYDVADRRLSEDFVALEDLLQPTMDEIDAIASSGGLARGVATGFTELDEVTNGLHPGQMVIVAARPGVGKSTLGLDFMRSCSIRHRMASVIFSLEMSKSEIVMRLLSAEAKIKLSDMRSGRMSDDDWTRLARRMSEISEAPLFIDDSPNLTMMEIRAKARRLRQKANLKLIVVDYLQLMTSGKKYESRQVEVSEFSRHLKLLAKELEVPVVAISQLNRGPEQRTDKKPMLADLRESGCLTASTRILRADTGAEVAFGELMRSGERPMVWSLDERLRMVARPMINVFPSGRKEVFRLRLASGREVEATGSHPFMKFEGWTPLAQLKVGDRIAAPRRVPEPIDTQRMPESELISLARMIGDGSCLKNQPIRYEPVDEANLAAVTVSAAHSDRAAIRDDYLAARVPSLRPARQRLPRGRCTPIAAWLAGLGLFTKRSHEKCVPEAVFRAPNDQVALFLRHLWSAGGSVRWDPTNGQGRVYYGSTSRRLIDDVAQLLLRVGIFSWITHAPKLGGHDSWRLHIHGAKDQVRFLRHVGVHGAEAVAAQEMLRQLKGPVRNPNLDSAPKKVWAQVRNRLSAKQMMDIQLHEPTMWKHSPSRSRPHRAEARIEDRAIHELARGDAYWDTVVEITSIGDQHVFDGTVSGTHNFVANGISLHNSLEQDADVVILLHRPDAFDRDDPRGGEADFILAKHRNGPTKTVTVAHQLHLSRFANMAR
The experiment in a line: DnaB intein splicing inhibitors, dose response, biochemical, cell-free fluorescence (AID 449749).

A further assay addresses T2, Protein RecA (Mycobacterium tuberculosis, UniProt P9WHJ3).
T2 sequence (P9WHJ3 whole entry): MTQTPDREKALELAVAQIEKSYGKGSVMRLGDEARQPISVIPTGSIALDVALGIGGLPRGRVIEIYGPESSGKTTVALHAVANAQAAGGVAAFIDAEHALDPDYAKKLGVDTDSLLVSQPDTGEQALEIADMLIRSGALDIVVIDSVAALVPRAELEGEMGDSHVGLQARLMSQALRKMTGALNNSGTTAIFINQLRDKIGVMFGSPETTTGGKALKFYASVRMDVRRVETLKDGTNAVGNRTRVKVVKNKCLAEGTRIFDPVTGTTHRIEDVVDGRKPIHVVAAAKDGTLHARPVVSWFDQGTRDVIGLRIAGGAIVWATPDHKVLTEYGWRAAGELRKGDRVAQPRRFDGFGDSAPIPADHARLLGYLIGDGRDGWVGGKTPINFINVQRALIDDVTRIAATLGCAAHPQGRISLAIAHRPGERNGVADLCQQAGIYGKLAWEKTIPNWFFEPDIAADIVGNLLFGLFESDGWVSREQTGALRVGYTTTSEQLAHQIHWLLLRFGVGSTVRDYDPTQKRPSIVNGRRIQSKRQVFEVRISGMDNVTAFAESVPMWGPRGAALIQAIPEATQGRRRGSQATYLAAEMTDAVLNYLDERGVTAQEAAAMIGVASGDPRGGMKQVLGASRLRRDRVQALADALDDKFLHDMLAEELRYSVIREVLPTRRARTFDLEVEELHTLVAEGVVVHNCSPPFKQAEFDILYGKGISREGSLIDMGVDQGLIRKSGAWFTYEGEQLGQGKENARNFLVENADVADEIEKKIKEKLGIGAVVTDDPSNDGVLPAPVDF
The experiment in a line: Fluorescence Cell-Free Homogeneous Dose Retest to Identify Inhibitors of RecA-Intein Splicing Activity. [Related pubchem assays (depositor defined):AID2097, AID2223, AID489010, AID492950].

Assay [2] deals with Dual specificity mitogen-activated protein kinase kinase 1 (Homo sapiens, UniProt Q02750). The experiment in a line: Navigating the Kinome. Panel member name: MAP2K1.
Dual specificity mitogen-activated protein kinase kinase 1, sequence (Q02750 whole entry): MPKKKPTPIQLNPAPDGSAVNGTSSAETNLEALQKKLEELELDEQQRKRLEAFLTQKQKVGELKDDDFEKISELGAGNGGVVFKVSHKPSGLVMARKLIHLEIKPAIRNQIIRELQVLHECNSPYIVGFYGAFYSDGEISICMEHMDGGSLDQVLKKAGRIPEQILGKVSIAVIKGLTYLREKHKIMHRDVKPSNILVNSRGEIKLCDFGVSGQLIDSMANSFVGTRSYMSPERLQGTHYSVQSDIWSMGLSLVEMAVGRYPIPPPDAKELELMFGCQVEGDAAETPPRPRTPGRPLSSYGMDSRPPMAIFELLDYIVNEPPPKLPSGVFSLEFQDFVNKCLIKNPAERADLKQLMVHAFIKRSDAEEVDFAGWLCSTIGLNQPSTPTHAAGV
Assay [3] has as its target Serine/threonine-protein kinase PLK3 (Homo sapiens, UniProt Q9H4B4).
Assay [4] has as its target RAC-gamma serine/threonine-protein kinase (Homo sapiens, UniProt Q9Y243).
Assay [5] addresses Serine/threonine-protein kinase pim-1 (Homo sapiens, UniProt P11309).
Assay [6] addresses Fibroblast growth factor receptor 1 (Homo sapiens, UniProt P11362).
The target of assay [7] is Casein kinase I isoform alpha (Homo sapiens, UniProt P48729).
Casein kinase I isoform alpha, sequence (P48729 whole entry, canonical isoform): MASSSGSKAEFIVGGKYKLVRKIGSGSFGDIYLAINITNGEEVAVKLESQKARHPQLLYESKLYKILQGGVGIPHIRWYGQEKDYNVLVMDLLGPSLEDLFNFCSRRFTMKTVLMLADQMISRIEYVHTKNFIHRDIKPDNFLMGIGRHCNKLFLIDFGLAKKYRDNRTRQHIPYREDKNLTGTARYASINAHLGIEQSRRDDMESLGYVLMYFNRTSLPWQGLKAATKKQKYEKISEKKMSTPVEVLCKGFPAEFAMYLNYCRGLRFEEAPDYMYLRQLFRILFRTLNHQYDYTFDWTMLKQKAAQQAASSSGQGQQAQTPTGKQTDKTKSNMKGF
Assay [8] addresses Serine/threonine-protein kinase pim-3 (Homo sapiens, UniProt Q86V86).
Assay [9] addresses T3, Serine/threonine-protein kinase Chk1 (Homo sapiens, UniProt O14757).
T3 sequence (O14757 whole entry): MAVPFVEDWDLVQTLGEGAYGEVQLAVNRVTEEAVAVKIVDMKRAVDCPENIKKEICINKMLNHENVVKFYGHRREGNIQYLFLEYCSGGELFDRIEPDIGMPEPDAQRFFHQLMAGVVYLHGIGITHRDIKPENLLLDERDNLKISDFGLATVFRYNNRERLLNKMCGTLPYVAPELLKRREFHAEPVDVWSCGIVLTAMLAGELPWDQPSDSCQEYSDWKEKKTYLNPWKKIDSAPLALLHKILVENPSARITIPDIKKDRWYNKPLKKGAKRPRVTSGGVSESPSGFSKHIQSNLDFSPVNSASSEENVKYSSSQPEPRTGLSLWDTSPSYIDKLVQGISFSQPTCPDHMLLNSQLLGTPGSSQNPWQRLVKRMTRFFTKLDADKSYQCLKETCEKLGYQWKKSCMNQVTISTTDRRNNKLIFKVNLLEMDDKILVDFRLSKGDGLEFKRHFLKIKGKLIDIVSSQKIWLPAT

The target of assay [10] is Vascular endothelial growth factor receptor 2 (Homo sapiens, UniProt P35968).
Assay [11] addresses Dual specificity tyrosine-phosphorylation-regulated kinase 1B (Homo sapiens, UniProt Q9Y463). Put plainly: Navigating the Kinome. Panel member name: DYRK1B.
Assay [12] addresses cAMP-dependent protein kinase catalytic subunit alpha (Homo sapiens, UniProt P17612).
Assay [13] addresses Dual specificity protein kinase CLK4 (Homo sapiens, UniProt Q9HAZ1).
The target in assay [14] is Dual specificity tyrosine-phosphorylation-regulated kinase 1A (Homo sapiens, UniProt Q13627).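 Also: measured against DYRK1A as one member of a broad kinome profiling panel.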

Each structure is given as a SMILES string. Active and inactive are the calls of the source.

Dual specificity protein kinase CLK4, sequence (Q9HAZ1 whole entry): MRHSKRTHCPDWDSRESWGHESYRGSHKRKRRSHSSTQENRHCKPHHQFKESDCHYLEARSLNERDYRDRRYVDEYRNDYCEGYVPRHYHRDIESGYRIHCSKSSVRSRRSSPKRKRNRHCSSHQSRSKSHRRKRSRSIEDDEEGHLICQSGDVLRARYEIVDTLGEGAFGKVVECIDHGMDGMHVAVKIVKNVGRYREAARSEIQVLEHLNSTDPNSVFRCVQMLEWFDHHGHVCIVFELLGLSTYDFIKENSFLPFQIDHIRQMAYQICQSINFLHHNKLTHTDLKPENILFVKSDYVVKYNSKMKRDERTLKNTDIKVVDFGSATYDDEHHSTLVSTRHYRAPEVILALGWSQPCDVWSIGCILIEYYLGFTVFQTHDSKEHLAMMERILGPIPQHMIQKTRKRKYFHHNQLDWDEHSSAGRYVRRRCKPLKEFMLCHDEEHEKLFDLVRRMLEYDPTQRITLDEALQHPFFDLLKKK
Fibroblast growth factor receptor 1, sequence (P11362 whole entry, canonical isoform): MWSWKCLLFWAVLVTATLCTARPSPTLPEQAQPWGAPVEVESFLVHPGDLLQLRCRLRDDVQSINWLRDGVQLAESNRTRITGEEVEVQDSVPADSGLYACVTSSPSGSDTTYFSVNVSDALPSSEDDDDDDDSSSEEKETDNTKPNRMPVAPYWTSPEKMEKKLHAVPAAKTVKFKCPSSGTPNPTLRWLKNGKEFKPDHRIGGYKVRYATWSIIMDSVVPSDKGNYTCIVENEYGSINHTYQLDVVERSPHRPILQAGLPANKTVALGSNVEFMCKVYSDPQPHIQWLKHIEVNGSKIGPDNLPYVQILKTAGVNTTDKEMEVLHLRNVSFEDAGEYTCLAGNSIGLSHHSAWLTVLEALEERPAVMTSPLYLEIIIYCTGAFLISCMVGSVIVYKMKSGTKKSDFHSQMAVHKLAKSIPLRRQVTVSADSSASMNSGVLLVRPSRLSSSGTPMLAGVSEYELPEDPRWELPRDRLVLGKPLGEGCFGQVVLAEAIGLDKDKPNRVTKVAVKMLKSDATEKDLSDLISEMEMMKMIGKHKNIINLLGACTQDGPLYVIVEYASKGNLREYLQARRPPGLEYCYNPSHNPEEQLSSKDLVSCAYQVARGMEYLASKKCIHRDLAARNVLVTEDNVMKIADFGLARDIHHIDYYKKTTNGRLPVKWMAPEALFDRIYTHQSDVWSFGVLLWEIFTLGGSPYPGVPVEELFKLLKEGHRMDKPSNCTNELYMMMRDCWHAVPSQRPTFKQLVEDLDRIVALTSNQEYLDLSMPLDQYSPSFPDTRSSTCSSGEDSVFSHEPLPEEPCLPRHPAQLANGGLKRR
Serine/threonine-protein kinase PLK3, sequence (Q9H4B4 whole entry): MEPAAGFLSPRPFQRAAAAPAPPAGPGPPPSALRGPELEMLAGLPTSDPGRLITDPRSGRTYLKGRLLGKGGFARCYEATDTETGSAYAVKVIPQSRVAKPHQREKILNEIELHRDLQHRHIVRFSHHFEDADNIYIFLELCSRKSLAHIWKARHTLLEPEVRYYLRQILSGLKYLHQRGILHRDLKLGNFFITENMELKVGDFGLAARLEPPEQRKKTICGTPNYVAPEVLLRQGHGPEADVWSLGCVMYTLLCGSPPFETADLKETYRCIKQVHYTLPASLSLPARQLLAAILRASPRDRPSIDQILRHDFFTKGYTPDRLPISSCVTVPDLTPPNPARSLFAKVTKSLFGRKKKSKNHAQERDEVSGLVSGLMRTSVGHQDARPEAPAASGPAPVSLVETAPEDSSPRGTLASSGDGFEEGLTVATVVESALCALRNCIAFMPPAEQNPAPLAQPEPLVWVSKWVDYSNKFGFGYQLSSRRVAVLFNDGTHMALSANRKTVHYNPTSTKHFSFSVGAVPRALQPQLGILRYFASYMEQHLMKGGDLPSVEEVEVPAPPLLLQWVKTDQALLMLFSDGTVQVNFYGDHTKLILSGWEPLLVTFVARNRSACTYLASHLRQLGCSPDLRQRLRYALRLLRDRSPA
RAC-gamma serine/threonine-protein kinase, sequence (Q9Y243 whole entry): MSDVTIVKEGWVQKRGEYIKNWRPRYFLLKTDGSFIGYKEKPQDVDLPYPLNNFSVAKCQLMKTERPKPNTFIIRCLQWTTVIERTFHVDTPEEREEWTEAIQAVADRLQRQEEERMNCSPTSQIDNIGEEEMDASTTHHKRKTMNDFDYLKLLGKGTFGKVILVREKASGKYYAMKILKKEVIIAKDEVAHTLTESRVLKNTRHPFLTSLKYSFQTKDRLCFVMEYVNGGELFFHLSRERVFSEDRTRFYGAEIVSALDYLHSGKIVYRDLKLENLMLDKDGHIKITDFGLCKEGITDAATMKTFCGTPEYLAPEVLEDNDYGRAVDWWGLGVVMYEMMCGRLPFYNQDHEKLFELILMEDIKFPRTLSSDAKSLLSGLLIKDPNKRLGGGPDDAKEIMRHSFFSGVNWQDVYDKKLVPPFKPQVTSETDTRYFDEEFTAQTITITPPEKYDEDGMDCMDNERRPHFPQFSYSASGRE
Dual specificity tyrosine-phosphorylation-regulated kinase 1B, sequence (Q9Y463 whole entry): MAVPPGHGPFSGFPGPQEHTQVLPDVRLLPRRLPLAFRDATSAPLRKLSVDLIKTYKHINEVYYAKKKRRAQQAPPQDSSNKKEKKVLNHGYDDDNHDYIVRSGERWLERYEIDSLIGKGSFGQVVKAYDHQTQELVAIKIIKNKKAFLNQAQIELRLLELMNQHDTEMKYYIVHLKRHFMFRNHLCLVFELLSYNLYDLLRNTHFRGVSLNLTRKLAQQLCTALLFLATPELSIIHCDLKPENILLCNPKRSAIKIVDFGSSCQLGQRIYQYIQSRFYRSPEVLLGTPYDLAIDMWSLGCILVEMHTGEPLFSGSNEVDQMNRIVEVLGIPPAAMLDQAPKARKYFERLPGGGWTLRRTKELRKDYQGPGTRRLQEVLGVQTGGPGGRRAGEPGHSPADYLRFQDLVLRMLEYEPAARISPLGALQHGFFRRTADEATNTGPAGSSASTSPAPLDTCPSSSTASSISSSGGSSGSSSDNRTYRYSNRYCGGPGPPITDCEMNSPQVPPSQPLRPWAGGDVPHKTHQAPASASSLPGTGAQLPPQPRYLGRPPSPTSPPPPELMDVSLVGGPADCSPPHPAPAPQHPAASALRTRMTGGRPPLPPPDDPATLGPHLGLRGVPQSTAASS
Serine/threonine-protein kinase pim-1, sequence (P11309 whole entry): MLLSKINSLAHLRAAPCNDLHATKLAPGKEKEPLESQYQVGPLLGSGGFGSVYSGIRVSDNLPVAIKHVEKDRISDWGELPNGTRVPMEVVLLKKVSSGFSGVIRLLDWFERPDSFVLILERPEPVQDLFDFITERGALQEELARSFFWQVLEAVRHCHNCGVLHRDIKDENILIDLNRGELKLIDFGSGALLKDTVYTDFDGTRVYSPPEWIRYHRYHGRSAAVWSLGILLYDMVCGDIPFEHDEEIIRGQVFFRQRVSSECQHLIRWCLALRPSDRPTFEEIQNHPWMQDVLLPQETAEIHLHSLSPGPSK

The term AC50 denotes the concentration giving half of the maximal activity seen. By EC50 is commonly meant the concentration that produces a half-maximal response. As to `COC(=O)CCS(=O)(=O)c1nc(-c2ccccc2)cc(C(F)(F)F)n1`, in [1], the AC50 was 3.44 µM (active). The EC50 on Protein RecA was 4.56 µM (active).
Take `O=C(O)c1ccc(NC2=C(Cl)C(=O)c3ccccc3C2=O)cc1`: the AC50 in assay [1] was 3.36 µM (active). The EC50 on Protein RecA is 1.22 µM (active).
For the molecule `O=C(O)c1ccc2c3c(ncnc13)-c1ccccc1C2=O`, the AC50 in assay [1] was 4.07 µM (active). For the same molecule, the EC50 at Protein RecA is 1.77 µM (active).
What is called Ki is a dissociation constant, usually derived from enzyme kinetics or from competition with a known ligand. As to `Cc1ccc2nccc(NC(=O)Nc3cccc(C(F)(F)F)n3)c2c1`, the Ki was > 3.16 µM (inactive) in [2]; > 7.94 µM (inactive) in assay [3]; > 10 µM (inactive) in assay [4]; > 3.16 µM (inactive) in assay [5]; > 3.98 µM (inactive) in assay [6]; > 5.01 µM (inactive) in assay [7]. Besides, the Ki in [8] was 0.316 µM (active); in assay [9], > 7.94 µM (inactive); in [10] it was > 2 µM (inactive); in assay [11] it was > 2.51 µM (inactive); in assay [12], > 7.94 µM (inactive); in [13], 0.1 µM (active). In addition, the Ki in assay [14] was > 1 µM (inactive).
As for `Cc1nn(C)c2sc3c(=O)[nH]cnc3c12`, the Ki is 100 µM (active) in assay [2]; > 79.4 µM (inactive) in assay [3]; > 100 µM (inactive) in assay [4]; 31.6 µM (active) in assay [5]; > 50.1 µM (inactive) in [6]; 50.1 µM (active) in assay [7]. Moreover, the Ki in assay [8] is 2.51 µM (active); in [9] it was > 79.4 µM (inactive); in assay [10] it was > 79.4 µM (inactive); in [11], 12.6 µM (active); in [12], 50.1 µM (active); in assay [13], 3.16 µM (active). Besides, in assay [14], the inhibitory constant (Ki) is 25.1 µM (active).
Regarding `Cc1c(/N=C2\C=CC(=O)c3ccccc32)c(=O)n(-c2ccccc2)n1C`, the half-maximal activity concentration (AC50) in assay [1] is 1.63 µM (active). Also, the EC50 on Protein RecA is 0.768 µM (active).
With `COc1cc2c(cc1F)C(c1ccccc1Cl)=Nc1c(n[nH]c1C)N2` [RG-1530], the Ki in assay [2] is 2 µM (active); in [3], 6.31 µM (active); in [4], > 10 µM (inactive); in [5] it was > 5.01 µM (inactive); in assay [6], 0.0501 µM (active); in [7] it was > 5.01 µM (inactive). The Ki was > 7.94 µM (inactive) in assay [8]; 0.501 µM (active) in [9]; 0.0126 µM (active) in assay [10]; 0.0316 µM (active) in [11]; > 3.16 µM (inactive) in assay [12]; 1 µM (active) in [13]. Also, the Ki in assay [14] was > 0.794 µM (inactive).
